{"source": "paper PMC8752738", "about": "“A propolis-derived small molecule ameliorates metabolic syndrome in obese mice by targeting the CREB/CRTC2 transcriptional complex” (Nature Communications, 2022)", "key": {"[1]": {"experiment": "Blood chemistry (plasma hormones by ELISA)", "assay_type": "in vivo, mouse", "description": "The plasma hormone levels of insulin and ghrelin were measured by ELISA kits from Millipore, glucagon and leptin were determined by ELISA kits from R&D."}, "[2]": {"biological_target": "T1, endogenous CREB / CRTC2 interaction (Mus musculus, UniProt Q01147)", "T1 construct": "endogenous in cells; host or cells: mouse primary hepatocytes", "experiment": "Co-immunoprecipitation by anti-CRTC2 antibody, primary hepatocytes: CREB", "assay_type": "cell-based", "description": "Fig. 2 APC blocks interaction between CREB and CRTC2. a Analysis of GST-CREB immunoprecipitated with overexpressed FLAG-CRTC2 from the lysates of HEK293T cells. APC (10 μM) was added to the culture media for 1 h and the following IP mixture. The relative gray density of FLAG in GST-pull-down fraction is shown as a bar graph (bottom). One of three independent experiments is presented (top, n = 3). Data are represented as mean ± SEM); P values were determined by one-way ANOVA followed Dunnett’s multiple comparisons test. b Analysis of HA-CRTC2 immunoprecipitated with endogenous CREB from primary hepatocyte lysates. […] Data are represented as mean ± SEM; P values were determined by one-way ANOVA followed Dunnett’s multiple comparisons test. c Immunoblotting analysis of endogenous CREB, CRTC2, and CBP interaction by an anti-CRTC2 antibody from the lysate of primary hepatocytes. […] Data are represented as mean ± SEM; P values were determined by two-way ANOVA followed Bonferroni’s multiple comparisons test. d Immunoblotting analysis of protein GST-CREB recovered HIS-CRTC2-S171A proteins purified from E. coli. […] Data are represented as mean ± SEM; P values were determined by one-way ANOVA followed Dunnett’s multiple comparisons test (compared with APC = 0). […]"}, "G6pc promoter (G6p-Luc)": {"tested_on": "G6pc promoter (G6p-Luc)", "experiment": "G6p-Luc reporter in primary hepatocytes", "assay_type": "cell-based, mouse", "details": "APC 10 μM, 8-h"}, "[3]": {"details": "DIO mice, APC 10mg/kg, group mean, n=6"}, "[4]": {"details": "DIO mice, APC 10mg/kg, individual mouse"}, "[5]": {"details": "DIO mice, APC 20mg/kg, individual mouse"}}, "note": "Values joined by “and” are separate entries in the source; they are usually repeats but may differ in a detail not shown here. Identical values can stand only once."}
{"smiles": "CC(C)=CCc1cc(C=CC(=O)O)cc(CC=C(C)C)c1O", "note": "[APC, 3,5-diprenyl-4-hydroxycinnamic acid]", "values": [{"measurement": "plasma insulin and glucagon levels", "setting": "[1]; DIO and db/db mice", "value": "without a change"}, {"measurement": "leptin levels", "setting": "[1]; DIO mice", "value": "not significant"}, {"measurement": "plasma glucagon in DIO, mean", "setting": "[1]; [3]", "value": 109, "unit": "ng/dL"}, {"measurement": "plasma leptin in DIO, mean", "setting": "[1]; [3]", "value": 54.89, "unit": "ng/mL"}, {"measurement": "plasma glucagon in DIO", "setting": "[1]; [4]", "value": "116.57 ng/dL and 100.35 ng/dL and 100.46 ng/dL and 94.57 ng/dL and 118.78 ng/dL and 123.34 ng/dL"}, {"measurement": "plasma leptin in DIO", "setting": "[1]; [4]", "value": "54.49 ng/mL and 52.07 ng/mL and 53.5 ng/mL and 46.64 ng/mL and 59.49 ng/mL and 63.13 ng/mL"}, {"measurement": "plasma glucagon in DIO, mean", "setting": "[1]; DIO mice, APC 20mg/kg, group mean, n=6", "value": 102.8, "unit": "ng/dL"}, {"measurement": "plasma glucagon in DIO", "setting": "[1]; [5]", "value": "108 ng/dL and 94.83 ng/dL and 125.84 ng/dL and 81.38 ng/dL and 93.2 ng/dL and 113.74 ng/dL"}, {"measurement": "plasma leptin in DIO", "setting": "[1]; [5]", "value": "64.99 ng/mL and 59.47 ng/mL and 49.46 ng/mL and 54.02 ng/mL and 54.7 ng/mL and 57.91 ng/mL"}, {"measurement": "Plasma Insulin, mean", "setting": "[1]; Figure 8e, APC 10mg/kg, group mean, n=5, VEH mean 5.378", "value": 4.88, "unit": "ng/mL"}, {"measurement": "Plasma Insulin", "setting": "[1]; Figure 8e, APC 10mg/kg, individual mice", "value": "5.624 ng/mL and 3.217 ng/mL and 4.483 ng/mL and 6.089 ng/mL and 4.987 ng/mL"}, {"measurement": "Plasma Insulin, mean", "setting": "[1]; Figure 8e, APC 20mg/kg, group mean, n=5, VEH mean 5.378", "value": 4.334, "unit": "ng/mL"}, {"measurement": "Plasma Insulin", "setting": "[1]; Figure 8e, APC 20mg/kg, individual mice", "value": "3.191 ng/mL and 4.624 ng/mL and 5.384 ng/mL and 4.549 ng/mL and 3.923 ng/mL"}, {"measurement": "leptin levels", "setting": "[1]; db/db mice", "value": "effectively reduced"}, {"measurement": "plasma ghrelin", "setting": "[1]; db/db mice", "value": "no significant effects"}, {"measurement": "Plasma Insulin, mean", "setting": "[1]; db/db mice, group mean, n=6", "value": 12.2, "unit": "ng/mL"}, {"measurement": "plasma glucagon in db/db, mean", "setting": "[1]; db/db mice, group mean, n=6", "value": 266, "unit": "ng/dL"}, {"measurement": "Plasma Insulin", "setting": "[1]; db/db mice, individual mouse", "value": "9.327 ng/mL and 11.259 ng/mL and 11.886 ng/mL and 10.188 ng/mL and 13.359 ng/mL and 17.190 ng/mL"}, {"measurement": "plasma glucagon in db/db", "setting": "[1]; db/db mice, individual mouse", "value": "251.14 ng/dL and 274.24 ng/dL and 342.64 ng/dL and 244.9 ng/dL and 187.78 ng/dL and 295.42 ng/dL"}, {"measurement": "plasma Ghrelin in db/db ip APC", "setting": "[1]; db/db mice, ip APC, single animals", "value": "12.653 ng/mL and 14.269 ng/mL and 10.885 ng/mL and 7.483 ng/mL and 8.587 ng/mL"}, {"measurement": "Plasma leptin, mean of column B (APC)", "setting": "[1]; db/db mice, group mean (Figure 8l), n=5, VEH mean 1.196", "value": 0.714, "unit": "ng/mL"}, {"measurement": "Plasma leptin", "setting": "[1]; db/db mice, individual animals (Figure 8l), n=5", "value": "0.7357 ng/mL and 0.6738 ng/mL and 0.8588 ng/mL and 0.5919 ng/mL and 0.7100 ng/mL"}, {"measurement": "CREB/CRTC2 band gray signal, CRTC2-COIP fraction", "setting": "[2]; Fig 2c replicates, APC+ (10 μM)", "value": "0.6304 and 0.625 and 0.6291"}, {"measurement": "endogenous CREB co-immunoprecipitated by anti-CRTC2 antibody", "setting": "[2]; primary hepatocyte lysates, APC 10 μM", "value": "significantly decreased"}, {"measurement": "CRTC2-S171A induced G6p-luciferase activity", "setting": "G6pc promoter (G6p-Luc)", "value": "reduced"}]}
